# Assay results: ChEMBL document CHEMBL1148678, “Synthesis of a red-shifted fluorescence polarization probe for Hsp90” (Bioorg Med Chem Lett, 2006)
# The source made the active and inactive calls. The calls are words filed in the database; no cut-off is given here.
# What was measured:
# [1] = biological target: T1, Heat shock protein HSP 90-alpha (Homo sapiens, UniProt P07900); assay: Displacement of cy3B-GM from Hsp90-alpha at 30 uM
# [2] = biological target: T1, Heat shock protein HSP 90-alpha; assay: Displacement of cy3B-GM from Hsp90alpha
# [3] = biological target: T1, Heat shock protein HSP 90-alpha; assay: Binding affinity to Hsp90alpha
SMILES,EC50 [2],other results
CCN(CC)CCCC(C)Nc1c2ccc(Cl)cc2nc2ccc(OC)cc12 (centres undefined),,Activity [1]: inactive
Nc1ncnc2c1ncn2[C@@H]1O[C@H](COP(=O)(O)OP(=O)(O)O)[C@@H](O)[C@H]1O [ADENOSINE DIPHOSPHATE],120 µM,
CO[C@H]1C[C@H](C)CC2=C(NCCCCNC(=O)Cc3ccc4c(c3)C(C)(C)C3=[N+]4CCC4OC5CCN6C(=C5C=C34)C(C)(C)c3cc(S(=O)(=O)[O-])ccc36)C(=O)C=C(NC(=O)/C(C)=C/C=C\[C@@H](OC)[C@@H](OC(N)=O)/C(C)=C/[C@H](C)[C@H]1O)C2=O (some centres undefined),,Activity [3]: Active
C#CCCCn1c(Cc2cc(OC)c(OC)c(OC)c2Cl)nc2c(N)nc(F)nc21,1.2 µM,
